Patent US8637443B2, “Cleaning compositions and methods comprising a hydrofluoro-olefin or hydrochlorofluoro-olefin solvent” (Honeywell International Inc., priority 2008, dated 2014)

Experiment: toxicity (comparative statement, no method given)
Details: in comparison to CF3CH═CF2 (HFO-1225zc)

SMILES: FC=C(F)C(F)(F)F [HFO-1225yez, 1,1,1,2,3 pentafluoropropene]
- degree of toxicity: relatively low degree of toxicity
